The values that follow come from publication PMC11744575 (Advanced Science, 2024).

Broadly, the Km is the substrate concentration at which the rate is half of its maximum.

One data set deals with primary hepatocytes. Put plainly: Intracellular triglyceride content and BODIPY staining in primary hepatocytes. The settings on record: for effect of co-incubation on triglyceride levels within BBR-treated hepatocytes: co-incubation with BBR in the presence of OA. In kind it is cell-based, mouse. The protocol:
To establish an in vitro model of hepatic steatosis, hepatocytes were treated with 0.2 mM oleic acid (OA, O7501, Sigma‐Aldrich) for 16 h. OA was pre‐incubated with 10% bovine serum albumin (BSA, Sigma‐Aldrich) (1:4) for 1 h and then added to the cell culture medium along with different compounds.
Primary hepatocytes were washed three times with phosphate‐buffered saline (PBS) and then subjected to three repeated freeze‐thaw cycles. The released intracellular triglyceride content was then measured using a commercial assay kit (Jiancheng). Protein content was used for normalization.
The lipid droplets in the hepatocytes in 6‐well plates were visualized by first washing the cells and then immersing them in a serum‐free medium. Subsequently, […] BODIPY 493/503 (Sigma‐Aldrich) was added to the medium, and the cells were incubated for 20 min for staining, followed by imaging with confocal microscopy (Olympus, Tokyo, Japan).

A short description of data set [1]: Pharmacokinetic profile of BBR and 6-OH-BBR in db/db and lean mice (plasma, liver). The data set is classed as in vivo, mouse. The protocol:
Briefly, blood samples (50 µL) were collected at different time points post‐drug administration (no more than three collections per mouse), centrifuged at 4 °C and 8000 g for 5 min, and the upper plasma layer was collected. At 2 and 24 h post‐dosing, the mice were sacrificed, and liver tissues were collected for cryopreservation and prepared as homogenates (W/V: 0.1 g·mL^−1) for drug concentration determinations.
(§1) Briefly, proteins in the samples were precipitated with three volumes of methanol containing an internal standard (chlorophenylalanine). After centrifugation at 30 000 g for 10 min at 4 °C, the supernatant was injected into the LC‐MS/MS system for analysis. Chromatographic separation was conducted using a ZORBAX 300SB C18 column (100 × 2.1 mm, 3.5 µm, Agilent, CA, USA) at 40 °C on a Shimadzu HPLC system.

A further data set relates to PPARγ target genes. Put plainly: qPCR of PPARγ target genes in primary hepatocytes. The data set is classed as cell-based, mouse. Conditions: co-incubation with BBR. The protocol: Tissues or cells were lysed using TRIzol (#1 218 355, Invitrogen, Thermo Fisher Scientific, MA, USA) for subsequent RNA extraction through a series of steps involving chloroform extraction and isopropanol and ethanol precipitation. Reverse transcription and cDNA synthesis were performed using a reverse transcription and cDNA synthesis kit (#639 506, Takara Bio Inc., Kusatsu, Shiga, Japan) to synthesize complementary DNA (cDNA) from […] of RNA. Quantitative real‐time PCR analysis was conducted utilizing SYBR Green pre‐mix (Q111‐02, Vazyme Biotech Co., Ltd, Nanjing, China) and subsequently analyzed employing the Roche real‐time PCR system. The mRNA expression levels were calculated and quantified utilizing the relative standard curve method and subsequently normalized to the expression of the housekeeping gene Gapdh. The primer sequences utilized for qPCR analysis are listed in Table S2 (Supporting Information).
A general note: Quantitative PCR measures a nucleic acid by following its amplification.

Another data set concerns db/db mice. Put plainly: 4-week administration in db/db mice (liver injury, steatosis, glucose profiles). The data set is classed as in vivo, mouse.
The subject of data set [2] is peroxisome proliferator‐activated receptor alpha (PPARα). On the set-up: method as in PMID 18274627. The settings on record: cited from earlier work.
In a further data set the test system is livers of healthy rats. The arrangement: method as in PMID 1701930. Conditions: up to 102 weeks of treatment; cited from earlier work.
In data set [3] the test system is Primary cultured mouse hepatocytes. As to the kind of experiment: Cell viability (CCK8) cytotoxicity assay. In kind it is cell-based. The text has this: C) BODIPY staining in different groups; images are shown under 600× or 1800× magnification, scale bar = 100 µm. D) Flow scheme of RNA sequencing.
Primary hepatocytes were isolated from the livers of 6‐week‐old male C57BL/6J mice as previously described.^[ [25] ^] Briefly, the liver was thoroughly digested by injection of type IV collagenase (C4‐BIOC, Sigma‐Aldrich, Louis, MO, USA) via the portal vein. The perfused liver was excised, dispersed, and filtered through a 70 µm filter, and the digestion was terminated by adding cold Dulbecco's modified Eagle's medium (DMEM, #11 960 044, Gibco, Grand Island, NY, USA). The cell suspension was centrifuged at 4 °C at 50 g for 5 min to remove the supernatant and debris. An equal volume of DMEM and Percoll (CAS 65455‐52‐9, Sigma‐Aldrich) was then mixed thoroughly and centrifuged at 50 g for 15 min at 4 °C. The viable cell layer at the bottom was collected and further centrifuged in DMEM to prepare the cell seeding plate. Cells were seeded in a 6‐well plate at a density of 1 × 10^6 cells per well and cultured in DMEM medium supplemented with 10% fetal bovine serum (FBS, Gibco) at 37 °C in a 5% CO2 incubator.

The next data set deals with obese mice models. The arrangement: method as in PMID 29526820. The settings on record: no comparable liver damage in healthy lean mice; cited from earlier work.
Data set [4] deals with T1, recombinant human PPARγ protein (Homo sapiens, UniProt P37231).
T1 construct: purchased Sino Biotechnology, Beijing, China
T1 sequence (P37231 1-505): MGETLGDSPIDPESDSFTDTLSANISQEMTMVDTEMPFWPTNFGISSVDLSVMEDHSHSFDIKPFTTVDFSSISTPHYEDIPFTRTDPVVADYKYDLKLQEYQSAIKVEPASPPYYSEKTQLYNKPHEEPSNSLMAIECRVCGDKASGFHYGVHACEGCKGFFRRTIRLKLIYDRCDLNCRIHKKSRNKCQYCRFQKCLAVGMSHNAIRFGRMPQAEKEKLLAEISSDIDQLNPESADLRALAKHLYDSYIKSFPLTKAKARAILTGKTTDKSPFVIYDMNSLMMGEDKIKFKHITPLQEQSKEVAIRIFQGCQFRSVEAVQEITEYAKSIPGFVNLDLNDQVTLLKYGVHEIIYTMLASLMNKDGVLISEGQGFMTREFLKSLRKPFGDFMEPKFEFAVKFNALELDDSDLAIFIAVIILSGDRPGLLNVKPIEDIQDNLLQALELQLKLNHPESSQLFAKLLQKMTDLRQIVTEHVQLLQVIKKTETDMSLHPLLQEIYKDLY
As to the kind of experiment: MicroScale Thermophoresis (MST) of rosiglitazone binding with/without BBR. Conditions: rosiglitazone affinity in presence/absence of BBR. (In MST a laser heats a spot of the sample, and binding alters the fluorescence response.)

The test system of data set [5] is peroxisome proliferator‐activated receptor gamma (PPARγ). The arrangement: method as in PMID 18274627. The settings on record: cited from earlier work.
A short description of data set [6]: BBR metabolism kinetics with liver S9 fractions. The data set is classed as in vitro ADME, mouse. The settings on record: for Km at 2 h: mouse, liver S9 fraction. The protocol:
The incubations were carried out for 2 h at 37 °C in a 100 µL reaction volume containing the pooled liver S9 fraction (7.5 mg·mL^−1) and an NADPH‐regenerating system consisting of MgCl2 (40 mM), glucose‐6‐phosphate (40 µM), NADP^+ (8 µM), and glucose 6‐phosphate dehydrogenase (4 U·mL^−1). The reactions were terminated by the addition of 300 µL of ice‐cold acetonitrile containing the internal standard (chlorophenylalanine), followed by rigorous mixing and centrifugation. The supernatants were subsequently analyzed by LC‐MS/MS, employing methodologies detailed in previous publications.^[ [27] ^]
as §1

Substrate in data set [7]: CC(=O)Nc1ccc(O)cc1
As to the kind of experiment: Enzyme kinetic study in liver S9, Cyp1a2. The settings on record: 37.0 °C. In kind it is in vitro ADME, mouse.

Setting [8] is: db/db mice compared to lean littermates after BBR 20 mg·kg^−1 i.g.
Where [9] appears, read: db/db vs lean mice, single 20 mg·kg^−1 i.g.
[10] abbreviates: 25 mg·kg^−1 gavage once daily, 4 weeks.

As for `O=C(Nc1ccncc1)c1cc([N+](=O)[O-])ccc1Cl` [T0070907], the “effect of co-incubation on triglyceride levels within BBR-treated hepatocytes” value (“effect of co-incubation” for short) in the data set with primary hepatocytes is listed as “notable reduction”.

Consider `CCc1oc2cc(O)ccc2c1C(=O)c1cc(Br)c(O)c(Br)c1` [6‐OH‐BBR, 6‐hydroxy‐benzbromarone], for which, in [1] (setting [8]), the “liver concentration at 24 h, db/db vs lean” value was “significantly higher” and the “plasma concentration-time profile (metabolite production)” value was “delayed production”.

As to `CCC(=O)NC[C@H](Cc1ccc(OCCc2nc(-c3ccccc3)oc2C)cc1)N/C(C)=C\C(=O)c1ccc(C(F)(F)F)cc1` [GW6471], the “effect of co-incubation” value in the data set with primary hepatocytes was “failed to mitigate”.

For `O=C(Nc1ccccc1)c1cc([N+](=O)[O-])ccc1Cl` [GW9662], the “effect of co-incubation” value with primary hepatocytes is given as “notable reduction”. In addition, the “effect on BBR-induced upregulation of typical PPARγ target genes (mRNA)” value with PPARγ target genes was “significantly diminished”. Further, the “effect on BBR-mediated exacerbation of hepatic steatosis and liver injury” value in the data set with db/db mice (1 mg·kg^−1 i.p. with BBR, 4 weeks) is given as “markedly mitigated”.

For the molecule `Cc1ccc(Cn2nc(CCCc3ccc(OC(C)(C)C(=O)O)cc3)[nH]c2=O)cc1` [LY518674], the “effect of co-incubation” value in the data set with primary hepatocytes was “notable reduction”.

`CCc1oc2ccccc2c1C(=O)c1cc(Br)c(O)c(Br)c1` [BBR, Benzbromarone]: the “lipid accumulation (intracellular triglyceride, BODIPY lipid droplets)” value with primary hepatocytes (oleic acid (OA)-treated hepatocytes, 16 h) was “obviously enhanced”. Further, the “liver concentration at 2 h post-administration” value in [1] (db/db mouse livers vs lean littermates, 20 mg·kg^−1 i.g.) is reported as “notably higher”. Further, in data set [1] (setting [9]), the “decrease in clearance rate (CL)” value is reported as 42.5%; the “increase in area under the curve (AUC), plasma” value worked out at 1.75 fold; the “increase in mean residence time (MRT)” value was 1.54 fold; the “increase in plasma half-life (T1/2)” value is on record as 2.03 fold. Further, the “liver concentration at 24 h” value in data set [1] (liver tissues of both groups (db/db and lean), 20 mg·kg^−1 i.g.) is recorded as “undetectable”. Further, the “binding affinity for PPARα” value in data set [2] is on record as “weak binding affinity”. Moreover, the “hepatotoxicity in the livers of healthy rats” value with livers of healthy rats was “negligible hepatotoxicity”. Besides, in the data set on db/db mice (setting [10]), the “liver weight, serum transaminases, and creatinine levels” value was “increases”; the “serum triglyceride and non-esterified fatty acid (NEFA) levels” value was “reductions”. Besides, in the data set on db/db mice (4-week treatment), the “fasting plasma glucose levels” value was “significantly decreased”; the glucose tolerance result is reported as “improved”; the liver triglyceride levels result is listed as “elevation”; the “pyruvate tolerance and insulin sensitivity” value was “diminished”. In addition, the “cytotoxicity at dosages chosen for further experiments” value in [3] (15 and 30 µM) is “non‐toxic”. For the same molecule, the IC50 in data set [3] (Mus musculus, Hepatocyte, read-out: 50% inhibitory concentration (IC50), cell viability, 24 h incubation, CCK8) came to 80.3 µM. Also, the “hepatic steatosis and liver injury” value with obese mice models is given as “specifically exacerbates”. In addition, the “nature of BBR binding against the PPARγ agonist rosiglitazone (MST)” value in data set [4] was “competitive”. The “binding affinity for PPARγ” value in [5] is “weak binding affinity”. For the same molecule, in data set [6] (S9 from db/db mice compared to lean mice), the “metabolism catalyzed by liver S9 fractions” value was “marked reduction”. Further, the Michaelis-Menten constant (Km) at 2 h in data set [6] (lean littermates of db/db mice, liver S9 from Lean mice) is 8.14 µg/mL. Further, in [6] (liver S9 from db/db mice), the Km at 2 h amounted to 9.24 µg/mL.

B1: Cyp1a2 (Mus musculus) (protein)
chain: MAFSQYISLAPELLLATAIFCLVFWMVRASRTQVPKGLKNPPGPWGLPFIGHMLTVGKNPHLSLTRLSQQYGDVLQIRIGSTPVVVLSGLNTIKQALVRQGDDFKGRPDLYSFTLITNGKSMTFNPDSGPVWAARRRLAQDALKSFSIASDPTSASSCYLEEHVSKEANHLVSKLQKAMAEVGHFEPVSQVVESVANVIGAMCFGKNFPRKSEEMLNIVNNSKDFVENVTSGNAVDFFPVLRYLPNPALKRFKTFNDNFVLFLQKTVQEHYQDFNKNSIQDITSALFKHSENYKDNGGLIPEEKIVNIVNDIFGAGFDTVTTAITWSILLLVTWPNVQRKIHEELDTVVGRDRQPRLSDRPQLPYLEAFILEIYRYTSFVPFTIPHSTTRDTSLNGFHIPKERCIYINQWQVNHDEKQWKDPFVFRPERFLTNNNSAIDKTQSEKVMLFGLGKRRCIGEIPAKWEVFLFLAILLQHLEFSVPPGVKVDLTPNYGLTMKPGTCEHVQAWPRFSK
notes: liver S9 fractions from db/db mice or their lean littermates; from tissue; host or cells: pooled liver S9 fraction of db/db mice or lean littermates
In the case of B1, the Km amounted to 45.8 µM in [7] (other: Cyp1a2, pooled liver S9, Lean) and 32.5 µM in [7] (other: Cyp1a2, pooled liver S9, db/db).
